One experiment deals with T1, α-amylase from porcine pancreatic (Sus scrofa, UniProt P00690).
T1 sequence (P00690 16-511): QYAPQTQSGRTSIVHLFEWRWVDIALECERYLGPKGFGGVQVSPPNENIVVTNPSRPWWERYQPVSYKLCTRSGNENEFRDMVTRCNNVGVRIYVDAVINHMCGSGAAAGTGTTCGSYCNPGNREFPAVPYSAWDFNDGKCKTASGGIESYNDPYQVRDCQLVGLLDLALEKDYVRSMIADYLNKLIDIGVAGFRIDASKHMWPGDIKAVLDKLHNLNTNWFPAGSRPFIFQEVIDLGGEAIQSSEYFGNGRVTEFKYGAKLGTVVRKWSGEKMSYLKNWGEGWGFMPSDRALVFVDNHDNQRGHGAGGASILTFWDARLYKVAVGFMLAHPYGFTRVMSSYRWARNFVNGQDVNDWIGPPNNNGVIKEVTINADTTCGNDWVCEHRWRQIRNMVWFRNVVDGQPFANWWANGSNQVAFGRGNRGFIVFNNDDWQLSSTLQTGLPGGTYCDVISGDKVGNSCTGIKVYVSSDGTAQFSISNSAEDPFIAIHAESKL
In words: In vitro α-amylase inhibition assay. The format is biochemical.
Conditions: not given
In turn, `Cc1ccc([N+](=O)[O-])cc1S(=O)(=O)N/N=C1\C(=O)Nc2ccc([N+](=O)[O-])cc21` [Compound 4] returned a 50% inhibitory concentration (IC50) of 13.3 ± 0.3 µM.
Still for that read-out and setting: the result for `O=C1Nc2ccc([N+](=O)[O-])cc2/C1=N/NS(=O)(=O)c1ccc([N+](=O)[O-])cc1` [Compound 5] reads 13.2 ± 0.2 µM; that for `Cc1ccc([N+](=O)[O-])cc1S(=O)(=O)N/N=C1\C(=O)Nc2ccccc21` [Compound 9], 13.2 ± 0.3 µM.
In the case of `O=C1Nc2ccccc2/C1=N/NS(=O)(=O)c1ccc([N+](=O)[O-])cc1` [Compound 10], the concentration for half-maximal inhibition (IC50) is 13.2 ± 0.2 µM.
Take `Cc1ccc([N+](=O)[O-])cc1S(=O)(=O)N/N=C1\C(=O)Nc2ccc(Cl)cc21` [Compound 15, (Z)-N'-(5-chloro-2-oxoindolin-3-ylidene)-2-methyl-5-nitrobenzenesulfonohydrazide]: the IC50 was 14.9 ± 0.2 µM.

Still in this experiment, the particulars now being: read-out: IC50 ± SEM Alpha-amylase; porcine pancreatic α-amylase, starch.
For the compound `O=C1Nc2ccc(Cl)cc2/C1=N/NS(=O)(=O)c1ccc([N+](=O)[O-])cc1` [Compound 16, (Z)-N'-(5-chloro-2-oxoindolin-3-ylidene)-4-nitrobenzenesulfonohydrazide], the IC50 was found to be 12.3 ± 20 µM.

Broadly, the IC50 is the concentration needed to halve the response being measured.
